Assay results reported in patent US9586914B2, “Modulators of C3a receptors” (THE UNIVERSITY OF QUEENSLAND, priority 2011, dated 2017).
Entries after “also recorded” stand apart in the source; their conditions may differ.

How the values were obtained:
[1] = molecular target: T1, C3a receptor (C3aR) (Homo sapiens, UniProt Q16581); assay: Competitive binding with [^125I]-C3a in HMDM; details: Table 6, competitive binding with [^125I]-C3a, HMDM
T1 construct: peripheral blood mononuclear cells were isolated from buffy coat (obtained from Australian Red Cross Blood Service, Kelvin Grove); endogenous in cells; host or cells: primary human monocyte-derived macrophages (HMDM) differentiated from CD14+ monocytes of donor buffy coat
T1 sequence (Q16581 1-482): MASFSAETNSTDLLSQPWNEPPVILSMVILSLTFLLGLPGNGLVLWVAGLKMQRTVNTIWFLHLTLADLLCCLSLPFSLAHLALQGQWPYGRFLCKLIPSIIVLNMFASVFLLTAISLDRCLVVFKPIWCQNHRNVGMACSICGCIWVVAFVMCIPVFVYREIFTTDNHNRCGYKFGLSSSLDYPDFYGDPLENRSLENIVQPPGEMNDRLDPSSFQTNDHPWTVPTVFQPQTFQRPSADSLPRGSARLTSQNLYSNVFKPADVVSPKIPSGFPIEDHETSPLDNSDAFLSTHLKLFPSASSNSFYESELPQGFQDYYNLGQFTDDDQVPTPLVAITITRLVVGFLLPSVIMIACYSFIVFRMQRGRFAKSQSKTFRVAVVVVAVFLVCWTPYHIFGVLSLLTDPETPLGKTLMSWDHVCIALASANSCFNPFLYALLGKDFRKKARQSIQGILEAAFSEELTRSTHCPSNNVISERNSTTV
Outline: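 IC50 values are geometric means, with −log IC50 computed per experiment and given as arithmetic mean ± SE. Cells were CD14+ monocytes from buffy-coat PBMC, differentiated to macrophages and used on day 7. Unbound label was removed by GF/B filtration with 3 cold washes in 50 mM Tris-HCl pH 7.4.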

[2] = molecular target: T2, C3aR (Homo sapiens, UniProt Q16581); assay: Desensitization experiments (Ca^2+ efflux after hC3a desensitization); type: cell-based; details: hC3a 3 μM first; second addition of 1 μM compound; HMDM
T2 construct: peripheral blood mononuclear cells were isolated from buffy coat (obtained from Australian Red Cross Blood Service, Kelvin Grove); endogenous in cells; host or cells: primary human monocyte-derived macrophages (HMDM) differentiated from CD14+ monocytes of donor buffy coat
T2 sequence (Q16581 1-482): T1 sequence (Q16581 1-482)
Experimental: Desensitization experiments were used to measure the selectivity of various ligands for C3aR, since this can help to clarify whether the non-peptidic ligands bind selectively to C3aR over other GPCRs that signal through intracellular calcium release.
The hC3a (3 μM) was administered to human monocyte derived macrophage cells, which produces an efflux of intracellular Ca^2+ that dissipates after 4-5 mins (FIGS. 4A and 4B). A second addition of 3 μM hC3a after 5 mins has no effect, due to desensitization of the receptor through either receptor (C3a receptor) phosphorylation or receptor internalization from the cell surface.

[3] = system: IL1B, IL8, CCL3, EGR1, FOSB and TNF gene expression in HMDMs; assay: Regulation of inflammatory genes in HMDM (qRT-PCR); type: cell-based, human; details: HMDMs, 300 nM, 30 minutes; qRT-PCR, fold change from control
Description: Human monocyte-derived macrophages (HMDMS) were isolated from buffy coat of anonymous donors provided by the Australian Red Cross Blood Service at Kelvin Grove, Queensland, Australia. White blood cells were separated from other blood components into different layers using Ficoll-Paque Plus Density Centrifugation (GE Healthcare Bio-Science, Uppsala, Sweden) according to manufacturer's instruction. The isolated white blood cells were repeatedly washed with ice-cold water to remove contaminating erythrocytes. CD14^+ monocytes were positively selected from white blood cells using CD14^+ Macs Magnetic Beads (Miltenyi biotech, Auburn, Calif., USA) after successive magnetic sorting and washings. CD14^+ monocytes (1.5×10^6 cells/mL) were seeded in 10 mL of IMDM supplemented with 10% fetal calf serum (FBS), 10 U/mL streptomycin, 10 U/mL penicillin and 2 mmol L-glutamine (Invitrogen). To generate HMDMS, […] of recombinant human macrophage colony stimulating factor (M-CSF) (Peprotech Inc., rocky Hill, N.J., USA) was added for differentiation. HMDMS were maintained at 37° C. in a humidified incubator with 5% CO2 for a week to fully differentiate. At day 7, the adhered HMDMS were harvested by gentle scraping in saline solution.
HMDMs (2×10^6) in 2 mL of IMDM medium were transferred into each well on a 6-well plate. The cells were left to incubate for 6 h to allow adhesion before being serum starved in serum free IMDM to reduce background noise of the C3a treatment. In the time response experiment, cells were treated with 10 nM of C3a or agonist (compound 8 or 64) for 0.5, 1, 2 or 6 h. In concentration response experiments, cells were treated with 1, 10, 100 or 300 nM for 1 h. To prepare the samples for the microarray experiments, cells were treated with agonist at 100-300 nM for 30 min or 1 h in the absence or presence of the antagonist (e.g. SB-290157 or antagonists). […] Cells were washed with saline solution at the end of each treatment before the RNA extraction step.
Total RNA was extracted from cells using RNeasy Mini Plus kit (Qiagen, USA) according to the manufacturer's instructions. The concentration of the RNA was determined by measuring absorbance at λ=260/280 […] on a nanodrop spectrophotometer (Thermo Scientific), according to the manufacturer's instructions.
Total RNA (2-5 μg) was reverse transcribed with Superscript III (Invitrogen, USA) using random oligo dT primer. Reagents were incubated (50 min, 50° C.; then 10 min, 70° C.) in thermal cyclers (Bio-Rad) to complete the reaction, cDNA samples were stored at −20° C. until further use. All RNA work was performed on ice (4° C.) to prevent degradation of the RNA samples.
cDNA (0.5 μg) samples were prepared with 5 μL SYBR® Green PCR master mix (Applied Biosystems™, CA, USA), 2 μL relevant primers (2 μM) and 1 μL dH2O before being analysed using an ABI 7900HT Fast Real-Time PCR System (Applied Biosystems™, CA, USA) according to the manufacturer's specifications. Fluorescence data was collected during the extension phase (60° C.). The concentration response data for each sample was then normalised against the same data for control housekeeping gene, (18S) to quantify and generate gene expression data. All samples were done in at least duplicate. Primers were designed using the Primer-BLAST software (National Center for Biotechnology Information, USA). Primers contained, amplicons that cross exon-exon boundaries to prevent amplification of genomic DNA. […]

For `CC(C)C[C@H](NC(=O)c1c[nH]c2ccccc12)c1nc(C(=O)N[C@@H](CCCNC(=N)N)C(=O)O)co1` [Compound 8, 3-Indole Carboxylic Acid-Leucine-Oxazole-Arginine-OH], the “pIC50 ± SEM” value [1] was 8.03 ± 0.05, the IC50 ([1]; read-out: IC50 (converted)) was 9 nM and the “Ca^2+ efflux on addition after first desensitization with hC3a (selectivity for C3aR over other GPCRs)” value [2] was “caused a second efflux of intracellular Ca^2+”. For the same compound, the “Induction of gene expression of IL1B, IL8, CCL3, EGR1, FOSB and TNF” value [3] was “significantly induce gene expression; also recorded: induced expression of inflammatory genes”.
